In patent US20090176888A1, “COMPOSITION COMPRISING PHYTOSPHINGOSINE OR DERIVATIVE THEREOF” (KOREA INSTITUTE OF RADIOLOGICAL & MEDICAL SCIENCES, priority 2003, published 2009):

Legend:
[1] = tested on: human lung cancer cells; assay: DNA fragmentation (agarose gel electrophoresis); type: cell-based; settings: 20 μg/ml C8PS with radiation, FIG. 20
Procedure: (§1) Human lung cancer cells were cultured in the same manner as in Experiment 1 and injected with 5 ml of 20 μg/ml of C8PS. Then, the DAPI staining and DNA fragmentation were carried out.
DNA fragmentation was carried out as follows:
C8PS-treated human lung cancer cells were dissolved in a lysis buffer (20 mM Tris/HCl, pH 8.0, 0.1 mM EDTA, 1% SDS and 0.5 mg/ml proteinase K) and treated with a mixture of phenol, chloroform, and isoamylalcohol (phenol/chloroform/isoamylalcohol=25:24:1) to thereby give a chromosomal DNA extract. The chromosomal DNA extract was subjected to 1% agarose gel electrophoresis and the resulting DNA fragments were visualized under an UV light.

[2] = tested on: human lung cancer cells; assay: Colony formation test in combination with radiation; type: cell-based; settings: for sensitizer enhancement ratio (SER): in combination with radiation
Procedure: (§2) Colony formation tests were carried out in human lung cancer cells, breast cancer cells, and uterine cervical cancer cells as follows:
(§3) Respective sphingosine, phytosphingosine, C6PS, and C8PS were dissolved ethanol to produce specimens. About 600 cells (for each cancer) were plated in a dish with a diameter of 60 mm and incubated in a CO2 incubator at 37° C. for a day. Then, the cancer cells were treated with the specimens in combination with radiation and were continuously cultured. When suitable colonies were formed, the cancer cells were fixed with a fixing solution (methanol/acetic acid=3:1) and stained with trypan blue. Then, the number of the colonies was counted and the results were evaluated in a comparative manner.

[3] = tested on: human lung cancer cells; assay: DAPI staining (percentage of apoptotic cells); type: cell-based; settings: 20 μg/ml C8PS with radiation
Procedure: as §1
DAPI staining protocol was as follows:
First, a control cell group, a radiation-treated cell group, a C8PS-treated cell group, and a C8PS and radiation concurrent treated cell group were fixed with 4% paraformaldehyde at room temperature for 30 minutes and washed with PBS. 50 ng/ml of a DAPI solution was added to the fixed cell groups and incubated for 30 minutes. Then, the cell groups were again washed with PBS and examined with a fluorescent microscope. Cellular apoptosis is characterized by condensation and fragmentation of cell nuclei. Based on this fact, apoptotic cells were counted in each group. Then, the number of apoptotic cells was divided by the number of total cells to derive the percentage of apoptotic cells in each group.

[4] = tested on: human lung cancer cells; assay: In vivo animal test, tumor volume with radiotherapy (20 Gy); design: species or system nude mice
Procedure: (§4) Nude mice (body weight: about 20 g) were randomized into 4 groups and the femoral region of the nude mice transplanted with human lung cancer cells. Then, tumor volume was allowed to reach a level of […]. One group had untreated cells as a control and a second group had radiation (dose of 20 Gy)-treated cells. A third group was orally administered with 50 mg/kg of an olive oil for one week on a daily basis, followed by radiotherapy (dose of 20 Gy). A fourth group was orally administered with a 50 mg/kg solution of phytosphingosine in an olive oil for one week on a daily basis, followed by radiotherapy (dose of 20 Gy). Tumor volume was measured at intervals of 3 days for 40 days. […] In case of a C8PS alone treated group, the tumor size increased until 10 days after the treatment. […] Meanwhile, tumor growth was suspended at a certain point of time after C8PS alone treatment. It can be seen from this fact that C8PS is useful by itself as an anticancer agent for inhibiting tumor growth.

[5] = tested on: human lung cancer cells; assay: Apoptosis test with or without radiation (4 Gy); type: cell-based; settings: 20 μg/ml, FIG. 13
Procedure: (§5) (1) Each 5 ml of 20 μg/ml of phytosphingosine and derivatives thereof were added to human lung cancer cell-containing dishes. Some cells were cultured without radiation and others were cultured with radiation with dose of 4 Gy. This apoptosis test was carried out in the same manner in the Experiment 1. Specimens used in this apoptosis test are as follows:
(§6) Control (Cont), IR, PS, PS+IR, C4PS, C4PS+IR, C6PS, C6PS+IR, C8PS, C8PS+IR, C12PS, C12PS+IR.

[6] = tested on: human uterine cervical cancer cells; assay: Colony formation test in combination with radiation; type: cell-based; settings: FIG. 18
Procedure: as §2, §3

[7] = tested on: human breast cancer cells; assay: as above; type: cell-based; settings: FIG. 18
Procedure: as §2, §3

[8] = tested on: human lung cancer cells (NCI-H460); assay: Apoptosis test (Sub G1, propidium iodide, flow cytometry); type: cell-based; settings: 5 μg/ml, culture time of 48 hours, FIG. 2
Procedure: Cancer cells as used in the experiment were human lung cancer cells (NCI-H460, Korean Cell Line Bank), human breast cancer cells (MDA-MB-231, American Type Culture Collection (ATCC)), human uterine cervical cancer cells (HeLa, Korean Cell Line Bank), and blood cancer cells (Jurkat, ATCC). These cancer cells were cultured in RPMI 1640 media containing 10% FBS, penicillin, and streptomycin (GIBCO BRL).
The apoptosis tests were carried out at human lung cancer cells, breast cancer cells, uterine cervical cancer cells, and blood cancer cells as follows:
Phytosphingosine or a derivative thereof was dissolved in DMSO. Samples of the resultant solution of different concentration levels (1, 2, 5, 10, 15, 20 μg/ml) were prepared. According to the following treatment schedule, phytosphingosine treated cancer cells were cultured, washed with PBS (phosphate buffered saline), and fixed with 70% ethanol. The fixed cells were again washed with PBS, suspended in PBS, and 1 mg/ml of RNase was added thereto. Then, DNA was stained with 50 μg/ml of propidium iodide fluorescent dye and the change in the Sub G1 was analyzed by flow cytometry (Becton DICKINSON). The Sub G1, a marker of apoptotic cell death, means DNA distribution lower than that in the G1 phase of cell cycle.
(1-1) In order to determine an anticancer effect of phytosphingosine, 5 ml of 10 μg/ml of phytosphingosine was added to respective dishes containing lung cancer cells, breast cancer cells, uterine cervical cancer cells, and blood cancer cells.
(1-2) In order to examine a correlation of an anticancer effect with the phytosphingosine concentration and post-treatment culture time, each 5 ml of 2, 5, 10, and 15 μg/ml of phytosphingosine was added to respective human uterine cervical cancer cell-containing dishes and human breast cancer cell-containing dishes. In addition, each 5 ml of 5, 10, 15, and 20 μg/ml of phytosphingosine was added to respective human lung cancer cell-containing dishes, and each 5 ml of 1, 5, 10, and 20 μg/ml of phytosphingosine was added to respective human blood cancer cell-containing dishes.
(1-3) An anticancer effect of phytosphingosine derivatives was determined in the same manner as mentioned in (1-1) and (1-2) except using 5 μg/ml of C4PS, C6PS, C8PS, and C12PS.

[9] = tested on: human uterine cervical cancer cells; assay: In vivo animal test, tumor size with radiotherapy; design: species or system nude mice; settings: for tumor size, compound alone treated group: after 7 days (rapidly increased until 7 days after the treatment); for tumor size, radiation and compound concurrent treated group: as a function of days; for tumor size, concurrent treatment vs radiation or compound alone: with radiation, FIGS. 24 and 25
Procedure: as §4
The animal tests were carried out using nude mice of which the femoral regions were transplanted with human uterine cervical cancer cells in the same manner as the aforementioned animal test using C8PS.

[10] = tested on: human uterine cervical cancer cells; assay: Apoptosis test with or without radiation; type: cell-based; settings: 5 μg/ml in combination with radiation, FIG. 17
Procedure: as §5, §6
(§7) (2) Apoptosis tests for human blood cancer cells, uterine cervical cancer cells, and breast cancer cells were carried out in the same manner as in the above (1) except using 5 μg/ml of phytosphingosine and derivatives thereof.

[11] = tested on: human breast cancer cells; assay: Apoptosis test with or without radiation; type: cell-based; settings: 5 μg/ml in combination with radiation, FIG. 17
Procedure: as §5, §6, §7

| Compound | chromosomal DNA fragmentation, concurrent treatment vs radiation or C8PS alone [1] | radiosensitivity ([2]; FIG. 12) | increase of radiosensitivity relative to Taxol ([2]; at LD50 of human lung cancer cells, FIG. 14B) [%] | sensitizer enhancement ratio (SER) ([2]; FIG. 12) | increase of apoptotic rate, concurrent treatment vs radiation alone ([2]; radiation at LD50 (number of colonies reduced to 50% by radiation alone), FIG. 14A) | apoptotic rate, concurrent treatment vs radiation or C8PS alone ([3]; FIG. 19) | increase of apoptotic rate, concurrent treatment vs radiation or C8PS alone ([3]; as a function of time, FIG. 21) [%] | tumor volume, concurrent treatment vs radiation or C8PS alone ([4]; 50 mg/kg oral daily for one week then radiotherapy 20 Gy, FIG. 22) | size of initial tumor, radiation and C8PS concurrent treated group ([4]; 50 mg/kg oral daily for one week then radiotherapy 20 Gy, FIG. 23) | tumor size, C8PS alone treated group ([4]; after the 10th day after treatment (increased until 10 days), FIG. 23) | apoptotic effect of concurrent application with radiation [5] | sensitizer enhancement ratio (SER) [6] | sensitizer enhancement ratio (SER) [7] | apoptotic rate [8] [%] | tumor size, compound alone treated group [9] | tumor size, radiation and compound concurrent treated group [9] | tumor size, concurrent treatment vs radiation or compound alone [9] | enhancement of radiosensitizing effect [10] | enhancement of radiosensitizing effect [11] |
| --- | --- | --- | --- | --- | --- | --- | --- | --- | --- | --- | --- | --- | --- | --- | --- | --- | --- | --- | --- |
| CCCCCCCCCCCCCC[C@@H](O)[C@@H](O)[C@H](CO)NC(=O)CCCCCCC [C8PS, N-octanoyl phytosphingosine] | remarkably increased | excellent radiosensitivity | ≥ 20 | 2 | about 30% | higher apoptotic rate | ≥ 20 | significantly reduced | maintained or reduced | showed little changed | excellent apoptotic effect | – | – | – | – | – | – | – | – |
| CCCCCCCCCCCCCC[C@@H](O)[C@@H](O)[C@H](CO)NC(=O)CCCCC [C6PS, N-hexanoyl phytosphingosine] | – | – | – | 1.6 | – | – | – | – | – | – | – | 2.67 | 2.40 | ~100 | slowly increased | showed little changes | significant reduction in tumor size | excellent | excellent |
| CCCCCCCCCCCCCC[C@@H](O)[C@@H](O)[C@H](CO)NC(=O)CCC [C4PS, N-butanoyl phytosphingosine] | – | – | – | – | – | – | – | – | – | – | – | – | – | ~100 | slowly increased | showed little changes | significant reduction in tumor size | excellent | excellent |
| CCCCCCCCCCCCC/C=C/[C@@H](O)[C@@H](N)CO [sphingosine] | – | – | – | 1.10 | – | – | – | – | – | – | – | – | – | – | – | – | – | – | – |
